According to ChEMBL document CHEMBL1201862, “PubChem BioAssay data set” (2004):
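The compound was tested at five concentrations on cells cultured in 96-well plates, with a 48-hour exposure period. GI50: concentration for 50% inhibition of growth.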 Activity calls are given as the source filed them. No stated cut-off is given here; in the data, active = GI50 up to about 1.1 µM and inactive = higher.

Key:
Assay in all cases: growth of human tumour cells (NCI), 48 h
786-0 = system: 786-0
A498 = system: A498
A549 = system: A549
ACHN = system: ACHN
BT-549 = system: BT-549
CAKI-1 = system: CAKI-1
CCRF-CEM = system: CCRF-CEM
COLO 205 = system: COLO 205
DLD-1 = system: DLD-1
DMS-114 = system: DMS-114
DMS-273 = system: DMS-273
DU-145 = system: DU-145
EKVX = system: EKVX
HCC 2998 = system: HCC 2998
HCT-116 = system: HCT-116
HCT-15 = system: HCT-15
HOP-18 = system: HOP-18
HOP-62 = system: HOP-62
HOP-92 = system: HOP-92
HT-29 = system: HT-29
Hs-578T = system: Hs-578T
IGROV-1 = system: IGROV-1
K562 = system: K562
KM-20L2 = system: KM-20L2
KM12 = system: KM12
LOX IMVI = system: LOX IMVI
LXFL 529 = system: LXFL 529
M14 = system: M14
M19-MEL = system: M19-MEL
MCF7 = system: MCF7
MDA-MB-231 = system: MDA-MB-231
MDA-MB-435 = system: MDA-MB-435
MDA-N = system: MDA-N
MOLT-4 = system: MOLT-4
Malme-3M = system: Malme-3M
NCI-H226 = system: NCI-H226
NCI-H23 = system: NCI-H23
NCI-H460 = system: NCI-H460
NCI-H522 = system: NCI-H522
NCI/ADR-RES = system: NCI/ADR-RES
OVCAR-4 = system: OVCAR-4
OVCAR-5 = system: OVCAR-5
PC-3 = system: PC-3
RPMI-8226 = system: RPMI-8226
RXF 393 = system: RXF 393
RXF 631 = system: RXF 631
SF-268 = system: SF-268
SF-295 = system: SF-295
SF-539 = system: SF-539
SK-MEL-28 = system: SK-MEL-28
SK-MEL-2 = system: SK-MEL-2
SK-MEL-5 = system: SK-MEL-5
SK-OV-3 = system: SK-OV-3
SN12C = system: SN12C
SNB-19 = system: SNB-19
SNB-75 = system: SNB-75
SNB-78 = system: SNB-78
SR = system: SR
SW-620 = system: SW-620
T47D = system: T47D
TK-10 = system: TK-10
U-251 = system: U-251
UACC-62 = system: UACC-62
UO-31 = system: UO-31
XF498 = system: XF498
HL-60 = system: HL-60
OVCAR-3 = system: OVCAR-3
OVCAR-8 = system: OVCAR-8
UACC-257 = system: UACC-257

## COc1cccc2c1C(=N)c1c(O)c3c(c(O)c1C2=O)C[C@@](O)(C(C)=O)C[C@@H]3OC1CC(N)C(O)C(C)O1 (stereo partly drawn)
786-0
  GI50: 171 nM (active)
A498
  GI50: 3000 nM (inactive)
A549
  GI50: 8.32 nM (active)
ACHN
  GI50: 244 nM (active)
BT-549
  GI50: < 10 nM (active)
CAKI-1
  GI50: 141 nM (active)
CCRF-CEM
  GI50: 0.1 nM (active)
COLO 205
  GI50: 394 nM (active)
DLD-1
  GI50: 2200 nM (inactive)
DMS-114
  GI50: 148 nM (active)
DMS-273
  GI50: 76.6 nM (active)
DU-145
  GI50: 3.86 nM (active)
EKVX
  GI50: 1420 nM (inactive)
HCC 2998
  GI50: 409 nM (active)
HCT-116
  GI50: 7.45 nM (active)
HCT-15
  GI50: 3270 nM
HOP-18
  GI50: 428 nM (active)
HOP-62
  GI50: 125 nM (active)
HOP-92
  GI50: 655 nM (active)
HT-29
  GI50: 400 nM (active)
Hs-578T
  GI50: 1.23 nM (active)
IGROV-1
  GI50: 1380 nM (inactive)
K562
  GI50: 0.159 nM (active)
KM-20L2
  GI50: 0.374 nM (active)
KM12
  GI50: 313 nM (active)
LOX IMVI
  GI50: 6.38 nM (active)
LXFL 529
  GI50: 542 nM (active)
M14
  GI50: 9.57 nM (active)
M19-MEL
  GI50: 486 nM (active)
MCF7
  GI50: 805 nM (active)
MDA-MB-231
  GI50: < 10 nM (active)
MDA-MB-435
  GI50: < 10 nM (active)
MDA-N
  GI50: < 10 nM (active)
MOLT-4
  GI50: 0.132 nM (active)
Malme-3M
  GI50: 0.721 nM (active)
NCI-H226
  GI50: 137 nM (active)
NCI-H23
  GI50: 8.75 nM (active)
NCI-H460
  GI50: 5.73 nM (active)
NCI-H522
  GI50: 163 nM (active)
NCI/ADR-RES
  GI50: 0.159 nM (active)
OVCAR-4
  GI50: 1830 nM (inactive)
OVCAR-5
  GI50: 0.445 nM (active)
PC-3
  GI50: < 10 nM (active)
RPMI-8226
  GI50: 0.159 nM (active)
RXF 393
  GI50: 1230 nM (inactive)
RXF 631
  GI50: 728 nM (active)
SF-268
  GI50: 9.38 nM (active)
SF-295
  GI50: 0.206 nM (active)
SF-539
  GI50: 7.89 nM (active)
SK-MEL-28
  GI50: 2300 nM (inactive)
SK-MEL-2
  GI50: 1480 nM (inactive)
SK-MEL-5
  GI50: 196 nM (active)
SK-OV-3
  GI50: 430 nM (active)
SN12C
  GI50: 7.71 nM (active)
SNB-19
  GI50: 8.11 nM (active)
SNB-75
  GI50: 7.64 nM (active)
SNB-78
  GI50: 2000 nM (inactive)
SR
  GI50: 4.66 nM (active)
SW-620
  GI50: 199 nM (active)
T47D
  GI50: 4.7 nM (active)
TK-10
  GI50: 1310 nM (inactive)
U-251
  GI50: 0.228 nM (active)
UACC-62
  GI50: 9.4 nM (active)
UO-31
  GI50: 3.69 nM (active)
XF498
  GI50: 202 nM (active)

## CCS(CC)(CC)CC1CCCC2=CCC(P(=O)(c3ccccc3)c3ccccc3)CC21 (stereo not drawn)
786-0
  GI50: 10900 nM (inactive)
A498
  GI50: 13600 nM (inactive)
A549
  GI50: 4890 nM (inactive)
ACHN
  GI50: 9020 nM (inactive)
CAKI-1
  GI50: 10000 nM (inactive)
CCRF-CEM
  GI50: 6780 nM (inactive)
COLO 205
  GI50: 17000 nM (inactive)
DLD-1
  GI50: 11200 nM (inactive)
DMS-114
  GI50: 8810 nM (inactive)
DMS-273
  GI50: 9080 nM (inactive)
EKVX
  GI50: 14300 nM (inactive)
HCC 2998
  GI50: 9250 nM (inactive)
HCT-116
  GI50: 7360 nM (inactive)
HCT-15
  GI50: 8260 nM
HL-60
  GI50: 3310 nM (inactive)
HOP-18
  GI50: 23800 nM (inactive)
HOP-62
  GI50: 16300 nM (inactive)
HOP-92
  GI50: 2500 nM (inactive)
HT-29
  GI50: 9120 nM (inactive)
IGROV-1
  GI50: 9570 nM (inactive)
K562
  GI50: 4090 nM (inactive)
KM-20L2
  GI50: 11500 nM (inactive)
KM12
  GI50: 11400 nM (inactive)
LOX IMVI
  GI50: 14700 nM (inactive)
LXFL 529
  GI50: 9640 nM (inactive)
M14
  GI50: 12200 nM (inactive)
M19-MEL
  GI50: 17900 nM (inactive)
MOLT-4
  GI50: 4430 nM (inactive)
Malme-3M
  GI50: 18400 nM (inactive)
NCI-H226
  GI50: 18700 nM (inactive)
NCI-H23
  GI50: 10500 nM (inactive)
NCI-H460
  GI50: 10300 nM (inactive)
NCI-H522
  GI50: 11000 nM (inactive)
OVCAR-3
  GI50: 13700 nM (inactive)
OVCAR-4
  GI50: 10100 nM (inactive)
OVCAR-5
  GI50: 15600 nM (inactive)
OVCAR-8
  GI50: 11400 nM (inactive)
RXF 393
  GI50: 9660 nM (inactive)
RXF 631
  GI50: 13600 nM (inactive)
SF-268
  GI50: 11400 nM (inactive)
SF-295
  GI50: 3810 nM (inactive)
SF-539
  GI50: 13300 nM (inactive)
SK-MEL-28
  GI50: 14400 nM (inactive)
SK-MEL-2
  GI50: 14200 nM (inactive)
SK-MEL-5
  GI50: 13200 nM (inactive)
SK-OV-3
  GI50: 12700 nM (inactive)
SN12C
  GI50: 11900 nM (inactive)
SNB-19
  GI50: 12900 nM (inactive)
SNB-75
  GI50: 11000 nM (inactive)
SNB-78
  GI50: 15400 nM (inactive)
SR
  GI50: 6270 nM (inactive)
SW-620
  GI50: 13900 nM (inactive)
TK-10
  GI50: 12700 nM (inactive)
U-251
  GI50: 10200 nM (inactive)
UACC-257
  GI50: > 10000 nM (inactive)
UACC-62
  GI50: 3010 nM (inactive)
UO-31
  GI50: 6320 nM (inactive)
XF498
  GI50: 5810 nM (inactive)
